Where only a bound is given, the exact number is not on record here.

T1 sequence (O95819 25-289 limits assumed): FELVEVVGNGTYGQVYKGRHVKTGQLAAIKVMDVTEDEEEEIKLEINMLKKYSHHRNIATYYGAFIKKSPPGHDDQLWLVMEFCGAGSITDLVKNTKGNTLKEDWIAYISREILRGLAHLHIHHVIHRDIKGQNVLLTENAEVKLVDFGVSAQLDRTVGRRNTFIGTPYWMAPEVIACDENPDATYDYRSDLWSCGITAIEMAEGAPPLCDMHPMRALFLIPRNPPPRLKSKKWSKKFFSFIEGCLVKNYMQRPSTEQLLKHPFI

This test concerns the target T1, human MAP4K4 kinase domain (Homo sapiens, UniProt O95819).
T1 construct: 0.5 nM human MAP4K4 kinase domain (Invitrogen); purchased Invitrogen
In words: MAP4K4 kinase activity, CisBio HTRF Transcreener ADP assay. The class given is biochemical. As to conditions: IC50 category; ATP at Km (10 μM), 0.5 nM kinase domain, 2 h; read-out: MAP4K4. The source says:
Compounds of the present invention were screened for their inhibitory activity against MAP4K4, versus selected off-target hits found with early members of this chemical series. MAP4K4 kinase activity was monitored using the CisBio HTRF Transcreener ADP assay, a competitive immunoassay with a reproducible Z′>0.6. In the detection step, endogenous ADP and d2-labeled ADP compete for binding an anti-ADP monoclonal antibody labelled with Eu^3+ cryptate. A ratiometric fluorescent read-out is used at 665 and 620 nm. Reactions were performed in the presence of 1% DMSO with ATP added at Km (10 μM), 0.5 nM human MAP4K4 kinase domain (Invitrogen), 1 μM biotin-myelin basic protein as substrate (Invitrogen), and extension of reaction time to 2 h. Assays were run in Greiner low volume plates with a final reaction volume of 10 μl. The MAP4K4 inhibition data are provided in Table 41 below for selected compounds of the present invention. The data has been categorised based on the IC50 value of the compound as “A”, “B” or “C”. IC50: A≤100 nM; 100 nM<B≤1 μM; 1 μM<C; nd=not determined.
A general note: In TR-FRET formats the signal depends on donor and acceptor labels being close together.
As for `O=c1[nH]cnc2c1c(-c1cnc(NCCO)nc1)cn2-c1cccnc1` [Ex-45], the IC50 lay within 100 to 1000 nM.
The result for `CC(C)(O)CCOc1ccc(-c2cn(-c3ccc(N)nc3)c3nc[nH]c(=O)c23)cc1` [Ex-96, 7-(6-aminopyridin-3-yl)-5-(4-(3-hydroxy-3-methylbutoxy)phenyl)-3,7-dihydro-4H-pyrrolo[2,3-d]pyrimidin-4-one] reads at most 100 nM; that for `O=c1[nH]cnc2c1c(-c1ccc(OCC3(CO)COC3)cc1)cn2-c1ccncc1` [Ex-76], at most 100 nM; that for `Cc1ccc(-c2cn(-c3ccccc3)c3c(=O)[nH]cnc23)cn1` [Ex-131], over 1000 nM.
Regarding `O=c1[nH]cnc2c1c(-c1ccncc1F)cn2-c1ccccc1` [Ex-61], the IC50 is 100 to 1000 nM.
As for `COc1cnc(-c2cn(-c3ccccc3)c3nc[nH]c(=O)c23)cn1` [Ex-107], the figure is 100 to 1000 nM; as for `Cc1cc(-n2cc(-c3ccc(OCCC(C)(C)O)cc3)c3c(=O)[nH]cnc32)ccn1` [Ex-82], 100 to 1000 nM; as for `N#Cc1cc(-c2cn(-c3ccccc3)c3nc[nH]c(=O)c23)cnc1N1CC[C@@H](O)C1` [Ex-40], at most 100 nM.
As to `CC(=O)NC1CC(n2cc(-c3cn(-c4ccccc4)c4nc[nH]c(=O)c34)cn2)C1` (stereo not drawn) [Ex-16], the IC50 was at most 100 nM.
Take `Cn1cnc2cccc(-c3cn(-c4ccccc4)c4c(=O)[nH]cnc34)c21` [Ex-129]: the IC50 was over 1000 nM.
The result for `CC(C)(N)CCOc1ccc(-c2cn(-c3cccnc3)c3nc[nH]c(=O)c23)cc1` [Ex-111] reads 100 to 1000 nM; that for `COc1ccc(-n2cc(-c3ccc(OCCC(C)(C)O)cc3)c3c(=O)[nH]cnc32)cn1` [Ex-86], at most 100 nM; that for `COCCNc1ccc(-c2cn(-c3ccncc3)c3nc[nH]c(=O)c23)cn1` [Ex-14], at most 100 nM.
As to `O=c1[nH]cnc2c(-c3ccc4cn[nH]c4c3)cn(-c3ccccc3)c12` [Ex-139, 7-(1H-Indazol-6-yl)-5-phenyl-3,5-dihydro-pyrrolo[3,2-d]pyrimidin-4-one], the IC50 fell in the range of 100 to 1000 nM.
The result for `CC(C)(O)COc1ccc(-c2cn(-c3cccnc3)c3nc[nH]c(=O)c23)cc1` [Ex-66, 5-(4-(2-hydroxy-2-methylpropoxy)phenyl)-7-(pyridin-3-yl)-3,7-dihydro-4H-pyrrolo[2,3-d]pyrimidin-4-one] reads at most 100 nM; that for `CC(C)(CO)COc1ccc(-c2cn(-c3cccnc3)c3nc[nH]c(=O)c23)cc1` [Ex-92], at most 100 nM; that for `CC(C)(O)CCOc1ccc(-c2cn(-c3cccnc3)c3nc[nH]c(=O)c23)cc1C#N` [Ex-87], at most 100 nM.
In the case of `COCCOc1ccc(-c2cn(-c3cccnc3)c3ncn(COP(=O)(O)O)c(=O)c23)cc1` [Ex-103], the IC50 is over 1000 nM.
Take `CC(C)(O)COc1ccc(-c2cn(-c3ccncc3)c3nc[nH]c(=O)c23)cc1` [Ex-68, 5-(4-(2-hydroxy-2methylpropoxy)phenyl)-7-(pyridine-4-yl)-3,7-dihydro-4H-pyrrolo[2,3-d]pyrimidin-4-one]: the IC50 was at most 100 nM.
Take `CC(C)(O)CCOc1ccc(-n2cc(-c3cccnc3)c3nc[nH]c(=O)c32)cc1` [Ex-125, 5-(4-(3-hydroxy-3-methylbutoxy)phenyl)-7-(pyridin-3-yl)-3,5-dihydro-4H-pyrrolo[3,2-d]pyrimidin-4-one]: the IC50 was at most 100 nM.
As for `O=c1[nH]cnc2c1c(-c1ccccn1)cn2-c1ccccc1` [Ex-106], the figure is over 1000 nM; as for `O=c1[nH]cnc2c1c(-c1cnc(NCCO)nc1)cn2-c1ccccc1` [Ex-49], at most 100 nM.
The result for `O=c1[nH]cnc2c1c(-c1cn[nH]c1)cn2-c1ccccc1` [Ex-112, 7-Phenyl-5-(1H-pyrazol-4-yl)-3,7-dihydro-pyrrolo[2,3-d]pyrimidin-4-one] reads at most 100 nM; that for `COCCCOc1ccc(-c2cn(-c3cccnc3)c3nc[nH]c(=O)c23)cc1` [Ex-71], at most 100 nM.
With `CC(=O)N1CC(n2cc(-c3cn(-c4cccc(F)c4)c4nc[nH]c(=O)c34)cn2)C1` [Ex-11], the IC50 was at most 100 nM.
On to `CC(=O)OCCn1cc(-c2cn(-c3ccc(F)cc3)c3nc[nH]c(=O)c23)cn1` [Ex-47, 2-(4-(7-(4-fluorophenyl)-4-oxo-4,7-dihydro-3H-pyrrolo[2,3-d]pyrimidin-5-yl)-1H-pyrazol-1-yl)ethyl Acetate], for which the IC50 was in the range of 100 to 1000 nM.
For `COCCOc1ccc(-c2cn(-c3cncc(F)c3)c3nc[nH]c(=O)c23)cc1` [Ex-85], the IC50 is at most 100 nM.
With `O=c1[nH]cnc2c(-c3ccccc3)cn(-c3cncc(F)c3)c12` [Ex-44], the IC50 was at most 100 nM.
For the compound `O=c1[nH]cnc2c1c(-c1cnc(N3CC(O)C3)nc1)cn2-c1cccnc1` [Ex-37], the IC50 was over 1000 nM.
As for `O=c1[nH]cnc2c1c(-c1ccc(OCCC3(O)CC3)cc1)cn2-c1cccnc1` [Ex-70], the figure is at most 100 nM; as for `CC(C)(O)C(O)COc1ccc(-c2cn(-c3cccnc3)c3nc[nH]c(=O)c23)cc1` (stereo not drawn) [Ex-81], at most 100 nM.
For the compound `CNCCC(=O)Nc1ccc(-c2cn(-c3ccncc3)c3nc[nH]c(=O)c23)cc1` [Ex-10], the IC50 fell in the range of 100 to 1000 nM.
As for `CC(=O)N1CC(n2cc(-c3cn(-c4ccccc4)c4nc[nH]c(=O)c34)cn2)C1` [Ex-60], the figure is at most 100 nM; as for `O=c1[nH]cnc2c1c(-c1cnn(CCO)c1)cn2-c1cccc(F)c1` [Ex-59], at most 100 nM.
Regarding `O=c1[nH]cnc2c(-c3ccc4[nH]cnc4c3)cn(-c3ccccc3)c12` [Ex-118], the IC50 is 100 to 1000 nM.
As to `Cc1noc(C)c1-c1cn(-c2ccccc2)c2nc[nH]c(=O)c12` [Ex-7], the IC50 is over 1000 nM.
For `COCCn1cc(-c2cn(-c3ccccc3)c3nc[nH]c(=O)c23)cn1` [Ex-62], the IC50 is at most 100 nM.
The result for `Cn1ccc(-c2cn(-c3ccccc3)c3c(=O)[nH]cnc23)n1` [Ex-122] reads over 1000 nM.
Regarding `COc1ccc(-c2cn(-c3ccccc3)c3c(=O)[nH]cnc23)cn1` [Ex-132], the IC50 lay within 100 to 1000 nM.
As for `O=c1[nH]cnc2c1c(-c1ccc(OCC3(CO)COC3)cc1)cn2-c1cccnc1` [Ex-79], the figure is at most 100 nM; as for `CN(CCC(C)(C)O)c1ccc(-c2cn(-c3ccccc3)c3nc[nH]c(=O)c23)cn1` [Ex-95], at most 100 nM.
On to `COc1ccc(-c2cn(-c3ccccc3)c3nc[nH]c(=O)c23)cn1` [Ex-18], for which the IC50 was at most 100 nM.
Regarding `O=c1[nH]cnc2c(-c3ccc(NC4CC4)nc3)cn(-c3ccccc3)c12` [Ex-135], the IC50 is over 1000 nM.
The result for `CC(=O)N1CC(n2cc(-c3cn(-c4cccnc4)c4nc[nH]c(=O)c34)cn2)C1` [Ex-35] reads 100 to 1000 nM.
Consider `O=c1[nH]cnc2c1c(-c1ccn[nH]1)cn2-c1ccccc1` [Ex-57], for which the IC50 lay within 100 to 1000 nM.
`COCCOc1ccc(-c2cn(-c3ccncc3)c3nc[nH]c(=O)c23)cn1` [Ex-13]: the IC50 was at most 100 nM.
Take `O=c1[nH]cnc2c1c(-c1ccc(OCCCN3CCOCC3)cc1)cn2-c1cccnc1` [Ex-42]: the IC50 is at most 100 nM.
Consider `Nc1ncccc1-c1cn(-c2ccccc2)c2c(=O)[nH]cnc12` [Ex-126], for which the IC50 is over 1000 nM.
On to `COC(=O)Cn1cc(-c2cn(-c3ccccc3)c3nc[nH]c(=O)c23)cn1` [Ex-21], for which the IC50 is at most 100 nM.
As for `O=c1[nH]cnc2c1c(-c1ccc[nH]1)cn2-c1ccccc1` [Ex-56, 7-Phenyl-5-(1H-pyrrol-2-yl)-3,7-dihydro-pyrrolo[2,3-d]pyrimidin-4-one], the figure is at most 100 nM.
Turning to `COC(COc1ccc(-c2cn(-c3cccnc3)c3nc[nH]c(=O)c23)cc1)CN1CCOCC1` (stereo not drawn) [Ex-34], the IC50 is at most 100 nM.
As for `Cn1ccc(-c2cn(-c3ccccc3)c3nc[nH]c(=O)c23)n1` [Ex-25], the IC50 is over 1000 nM.
On to `O=c1[nH]cnc2c1c(-c1cnc(N3CC(O)C3)nc1)cn2-c1ccccc1` [Ex-50], for which the IC50 lay within 100 to 1000 nM.
As to `COCCNc1ccc(-c2cn(-c3cccnc3)c3nc[nH]c(=O)c23)cn1` [Ex-39], the IC50 was 100 to 1000 nM.
Take `COCCn1cc(-c2cn(-c3cccnc3)c3nc[nH]c(=O)c23)cn1` [Ex-19]: the IC50 is 100 to 1000 nM.
With `O=c1[nH]cnc2c(-c3ccc(OC4CC4)nc3)cn(-c3ccccc3)c12` [Ex-137, 7-(6-cyclopropoxypyridin-3-yl)-5-phenyl-3,5-dihydro-4H-pyrrolo[3,2-d]pyrimidin-4-one], the IC50 is 100 to 1000 nM.
With `O=c1[nH]cnc2c1c(-c1cccnc1)cn2-c1ccccc1` [Ex-5], the IC50 was at most 100 nM.
As for `COCCNc1ncc(-c2cn(-c3ccncc3)c3nc[nH]c(=O)c23)cn1` [Ex-32], the figure is 100 to 1000 nM; as for `CC(C)(O)CCOc1ccc(-c2cn(-c3cccnc3)c3nc[nH]c(=O)c23)cc1F` [Ex-73], at most 100 nM.
For `O=c1[nH]cnc2c1c(-c1ccc(NCCO)nc1)cn2-c1ccccc1` [Ex-48, 5-[6-(2-Hydroxy-ethylamino)-pyridin-3-yl]-7-phenyl-3,7-dihydro-pyrrolo[2,3-d]pyrimidin-4-one], the IC50 is at most 100 nM.
As for `COc1ccc(-c2cn(-c3ccccc3)c3nc[nH]c(=O)c23)nn1` [Ex-104, 5-(6-Methoxy-pyridazin-3-yl)-7-phenyl-3,7-dihydro-pyrrolo[2,3-d]pyrimidin-4-one], the figure is over 1000 nM.
The result for `CC(C)(O)COc1ccc(-c2cn(-c3cc[n+]([O-])cc3)c3nc[nH]c(=O)c23)cc1` [Ex-98] reads 100 to 1000 nM; that for `Cc1cc(-c2cn(-c3ccccc3)c3c(=O)[nH]cnc23)ccn1` [Ex-130], 100 to 1000 nM.

The record behind these values is US12247045B2, “MAP4K4 inhibitors” (Imperial College Innovations Limited, priority 2018, dated 2025).
